{"source": "patent US9169254B2", "about": "“Spiroimidazolone derivative” (Chugai Seiyaku Kabushiki Kaisha, priority 2009, dated 2015)", "data": [{"molecular_target": "T1, human PTH1 receptor (Homo sapiens, UniProt Q03431)", "T1 sequence (Q03431 27-593)": "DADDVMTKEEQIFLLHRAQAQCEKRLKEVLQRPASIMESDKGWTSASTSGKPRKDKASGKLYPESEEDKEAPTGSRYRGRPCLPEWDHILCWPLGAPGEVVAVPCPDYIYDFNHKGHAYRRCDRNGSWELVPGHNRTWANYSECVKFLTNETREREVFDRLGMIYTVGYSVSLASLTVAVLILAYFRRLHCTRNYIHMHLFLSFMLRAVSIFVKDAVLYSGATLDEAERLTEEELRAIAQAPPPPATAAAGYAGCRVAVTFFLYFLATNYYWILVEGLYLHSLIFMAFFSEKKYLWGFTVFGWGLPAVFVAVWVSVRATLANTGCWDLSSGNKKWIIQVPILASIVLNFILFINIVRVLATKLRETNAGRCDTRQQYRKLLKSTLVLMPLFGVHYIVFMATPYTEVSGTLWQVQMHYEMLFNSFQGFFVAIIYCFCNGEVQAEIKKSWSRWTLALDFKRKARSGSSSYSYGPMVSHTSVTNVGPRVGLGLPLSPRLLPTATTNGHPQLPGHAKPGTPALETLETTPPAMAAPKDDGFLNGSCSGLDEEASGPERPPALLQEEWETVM", "experiment": "In vitro cAMP signal activity in HKRK-B7 cells (LLC-PK1 cells overexpressing the human PTH1 receptor)", "format": "cell-based", "conditions": "HKRK-B7 cells; compound at 1×10^−3 M; cAMP produced as percentage of that produced by hPTH(1-34) at 100 nM", "units": {"cAMP production activity (%)": "%"}, "values": [{"smiles": "Cc1cc(C(=O)N(C)C)ccc1CCS(=O)(=O)N1CCC2(CC1)N=C(c1cccc(Br)c1)NC2=O", "note": "[Compound 91, 4-{2-[2-(3-bromo-phenyl)-4-oxo-1,3,8-triaza-spiro[4.5]dec-1-ene-8-sulfonyl]-ethyl}-3,N,N-trimethyl-benzamide]", "cAMP production activity (%)": 73}, {"smiles": "Cc1cc(N(C)C(=O)CO)ccc1CCS(=O)(=O)N1CCC2(CC1)N=C(c1cccc(OC(F)(F)F)c1)NC2=O", "note": "[Compound 300, 2-hydroxy-N-methyl-N-(3-methyl-4-{2-[4-oxo-2-(3-trifluoromethoxy-phenyl)-1,3,8-triaza-spiro[4.5]dec-1-ene-8-sulfonyl]-ethyl}-phenyl)-acetamide]", "cAMP production activity (%)": 73}, {"smiles": "Cc1cc(C(=O)N2CCC(O)CC2)cc(C)c1CCS(=O)(=O)N1CCC2(CC1)N=C(c1ccc(F)c(OC(F)(F)F)c1)NC2=O", "note": "[Compound 1334, 2-(4-fluoro-3-trifluoromethoxy-phenyl)-8-{2-[4-(4-hydroxy-piperidine-1-carbonyl)-2,6-dimethyl-phenyl]-ethanesulfonyl}-1,3,8-triaza-spiro[4.5]dec-1-en-4-one]", "cAMP production activity (%)": 116}, {"smiles": "Cc1cc(C(=O)N2CCC(C)(O)CC2)cc(C)c1CCS(=O)(=O)N1CCC2(CC1)N=C(c1ccc(F)c(OC(F)(F)F)c1)NC2=O", "note": "[Compound 1335, 2-(4-fluoro-3-trifluoromethoxy-phenyl)-8-{2-[4-(4-hydroxy-4-methyl-piperidine-1-carbonyl)-2,6-dimethyl-phenyl]-ethanesulfonyl}-1,3,8-triaza-spiro[4.5]dec-1-en-4-one]", "cAMP production activity (%)": 97}, {"smiles": "[2H]C([2H])([2H])C([2H])([2H])C([2H])([2H])C([2H])([2H])Oc1ccc(C2=NC3(CCN(S(=O)(=O)/C=C/c4c(C)cc(C(=O)N5CCC(O)(CF)CC5)cc4C)CC3)C(=O)N2)cc1C(F)(F)F", "note": "[Compound 1261, 2-(4-[1,1,2,2,3,3,4,4,4-^2H9]butoxy-3-trifluoromethyl-phenyl)-8-{(E)-2-[4-(4-fluoromethyl-4-hydroxy-piperidine-1-carbonyl)-2,6-dimethyl-phenyl]-ethenesulfonyl}-1,3,8-triaza-spiro[4.5]dec-1-en-4-one]", "cAMP production activity (%)": 99}, {"smiles": "Cc1cc2[nH]c(=O)oc2c(C)c1CCS(=O)(=O)N1CCC2(CC1)N=C([C@H]1CC[C@H](C)CC1)NC2=O", "note": "[Compound 671, 8-[2-(5,7-Dimethyl-2-oxo-2,3-dihydro-benzoxazol-6-yl)-ethanesulfonyl]-2-(4-methyl-cyclohexyl)-1,3,8-triaza-spiro[4.5]dec-1-en-4-one]", "cAMP production activity (%)": 81}, {"smiles": "Cc1cc(C(=O)N(C)C)ccc1CCS(=O)(=O)N1CCC2(CC1)N=C(c1cccc(OC(F)(F)F)c1)N/C2=N\\O", "note": "[Compound 900, 4-{2-[4-[(Z)-hydroxyimino]-2-(3-trifluoromethoxy-phenyl)-1,3,8-triaza-spiro[4.5]dec-1-ene-8-sulfonyl]-ethyl}-3,N,N-trimethyl-benzamide]", "cAMP production activity (%)": 90}, {"smiles": "Cc1cc(C(=O)N2CCC(O)(CF)CC2)cc(C)c1/C=C/S(=O)(=O)N1CCC2(CC1)N=C(c1ccc(C(F)(F)C(F)(F)F)cc1)NC2=O", "note": "[Compound 1244, 8-{(E)-2-[4-(4-fluoromethyl-4-hydroxy-piperidine-1-carbonyl)-2,6-dimethyl-phenyl]-ethenesulfonyl}-2-(4-pentafluoroethyl-phenyl)-1,3,8-triaza-spiro[4.5]dec-1-en-4-one]", "cAMP production activity (%)": 96}, {"smiles": "CC(=O)N(C)c1ccc(/C(F)=C\\S(=O)(=O)N2CCC3(CC2)N=C(C2CCC(C)CC2)NC3=O)c(C)c1", "note": "(stereo not drawn) [Compound 942, N-(4-{(E)-1-Fluoro-2-[2-(4-methyl-cyclohexyl)-4-oxo-1,3,8-triaza-spiro[4.5]dec-1-ene-8-sulfonyl]-vinyl}-3-methyl-phenyl)-N-methyl-acetamide]", "cAMP production activity (%)": 31}, {"smiles": "CCCCCCCCC1=NC2(CCN([S@TB17](=O)(=O)CCc3c(C)cc(N(C)C(N)=O)cc3C)CC2)C(=O)N1", "note": "[Compound 1142, 1-{3,5-dimethyl-4-[2-(2-octyl-4-oxo-1,3,8-triaza-spiro[4.5]dec-1-ene-8-sulfonyl)-ethyl]-phenyl}-1-methyl-urea]", "cAMP production activity (%)": 68}, {"smiles": "O=C1NC(C2CCCCC2)=NC12CCN(S(=O)(=O)/C=C/c1cccc3[nH]c(=O)oc13)CC2", "note": "[Compound 188, 2-cyclohexyl-8-[(E)-2-(2-oxo-2,3-dihydro-benzoxazol-7-yl)-ethenesulfonyl]-1,3,8-triaza-spiro[4.5]dec-1-en-4-one]", "cAMP production activity (%)": 70}, {"smiles": "CC(C)(C)C1=NC2(CCN(S(=O)(=O)c3cccc(Cl)c3)CC2)C(=O)N1", "note": "[Compound 16, 2-tert-butyl-8-(3-chloro-benzenesulfonyl)-1,3,8-triaza-spiro[4.5]dec-1-en-4-one]", "cAMP production activity (%)": 41}, {"smiles": "Cc1cc(C(=O)N2CCCC2)ccc1/C=C/S(=O)(=O)N1CCC2(CC1)N=C(c1cccc(C(F)(F)F)c1F)NC2=O", "note": "[Compound 248, 2-(2-fluoro-3-trifluoromethyl-phenyl)-8-{(E)-2-[2-methyl-4-(pyrrolidine-1-carbonyl)-phenyl]-ethenesulfonyl}-1,3,8-triaza-spiro[4.5]dec-1-en-4-one]", "cAMP production activity (%)": 66}, {"smiles": "Cc1cc(CN)ccc1CCS(=O)(=O)N1CCC2(CC1)N=C(C1CCC(CCC(F)(F)F)CC1)NC2=O.O=C(O)C(F)(F)F", "note": "(stereo not drawn) [Compound 1284, 8-[2-(4-aminomethyl-2-methyl-phenyl)-ethanesulfonyl]-2-[4-(3,3,3-trifluoro-propyl)-cyclohexyl]-1,3,8-triaza-spiro[4.5]dec-1-en-4-one]", "cAMP production activity (%)": 2.5}, {"smiles": "CC[S+]([O-])CCCCCCC1=NC2(CCN(S(=O)(=O)CCc3c(C)cc(N(C)C(N)=O)cc3C)CC2)C(=O)N1", "note": "(stereo not drawn) [Compound 1317, 1-(4-{2-[2-(6-ethanesulfinyl-hexyl)-4-oxo-1,3,8-triaza-spiro[4.5]dec-1-ene-8-sulfonyl]-ethyl}-3,5-dimethyl-phenyl)-1-methyl-urea]", "cAMP production activity (%)": 3.4}, {"smiles": "CC(=O)NNC(=O)c1cc(C)c(/C=C/S(=O)(=O)N2CCC3(CC2)N=C(C2CCC(CCC(F)(F)F)CC2)NC3=O)c(C)c1", "note": "(stereo not drawn) [Compound 552, 3,5-dimethyl-4-((E)-2-{4-oxo-2-[4-(3,3,3-trifluoro-propyl)-cyclohexyl]-1,3,8-triaza-spiro[4.5]dec-1-ene-8-sulfonyl}-vinyl)-benzoic acid N′-acetyl-hydrazide]", "cAMP production activity (%)": 64}, {"smiles": "Cc1cc(N2C(=O)CC[C@@H]2CO)ccc1CCS(=O)(=O)N1CCC2(CC1)N=C(c1cccc(C(F)(F)F)c1)NC2=O", "note": "[Compound 268, 8-{2-[4-((R)-2-Hydroxymethyl-5-oxo-pyrrolidin-1-yl)-2-methyl-phenyl]-ethanesulfonyl}-2-(3-trifluoromethyl-phenyl)-1,3,8-triaza-spiro[4.5]dec-1-en-4-one]", "cAMP production activity (%)": 99}, {"smiles": "O=C1NC(C2CCCCC2)=NC12CCN(S(=O)(=O)CCCc1cccc(O)c1)CC2", "note": "[Compound 317, 2-cyclohexyl-8-[3-(3-hydroxy-phenyl)-propane-1-sulfonyl]-1,3,8-triaza-spiro[4.5]dec-1-en-4-one]", "cAMP production activity (%)": 62}, {"smiles": "Cc1cc(N(CCOCCO)C(N)=O)cc(C)c1/C=C/S(=O)(=O)N1CCC2(CC1)N=C(C1CCC(CCC(F)(F)F)CC1)NC2=O", "note": "(stereo not drawn) [Compound 724, 1-[3,5-Dimethyl-4-((E)-2-{4-oxo-2-[4-(3,3,3-trifluoro-propyl)-cyclohexyl]-1,3,8-triaza-spiro[4.5]dec-1-ene-8-sulfonyl}-vinyl)-phenyl]-1-[2-(2-hydroxy-ethoxy)-ethyl]-urea]", "cAMP production activity (%)": 74}, {"smiles": "Cc1cc(C(=O)N2CCC(O)(CF)CC2)cc(C)c1/C=C/S(=O)(=O)N1CCC2(CC1)N=C(c1ccc(OCCCC(F)(F)F)c(C(F)(F)F)c1)NC2=O", "note": "[Compound 1250, 8-{(E)-2-[4-(4-fluoromethyl-4-hydroxy-piperidine-1-carbonyl)-2,6-dimethyl-phenyl]-ethenesulfonyl}-2-[4-(4,4,4-trifluoro-butoxy)-3-trifluoromethyl-phenyl]-1,3,8-triaza-spiro[4.5]dec-1-en-4-one]", "cAMP production activity (%)": 67}, {"smiles": "Cc1cc(C(=O)N2CCC(O)(CF)CC2)cc(C)c1CCS(=O)(=O)N1CCC2(CC1)N=C(c1ccc(F)c(C(F)(F)F)c1)NC2=O", "note": "[Compound 802, 8-{2-[4-(4-fluoromethyl-4-hydroxy-piperidine-1-carbonyl)-2,6-dimethyl-phenyl]-ethanesulfonyl}-2-(4-fluoro-3-trifluoromethyl-phenyl)-1,3,8-triaza-spiro[4.5]dec-1-en-4-one]", "cAMP production activity (%)": 100}, {"smiles": "Cc1cc2nc(N)oc2c(C)c1CCS(=O)(=O)N1CCC2(CC1)N=C(C1CCC(C)CC1)NC2=O", "note": "(stereo not drawn) [Compound 1178, 8-[2-(2-Amino-5,7-dimethyl-benzoxazol-6-yl)-ethanesulfonyl]-2-(4-methyl-cyclohexyl)-1,3,8-triaza-spiro[4.5]dec-1-en-4-one]", "cAMP production activity (%)": 84}, {"smiles": "COC(=O)c1cccc(C2=NC3(CCN(S(=O)(=O)CCc4ccc(C(=O)N(C)C)cc4C)CC3)C(=O)N2)c1", "note": "[Compound 174, 3-{8-[2-(4-Dimethylcarbamoyl-2-methyl-phenyl)-ethanesulfonyl]-4-oxo-1,3,8-triaza-spiro[4.5]dec-1-en-2-yl}-benzoic acid methyl ester]", "cAMP production activity (%)": 68}, {"smiles": "CCCCC#CCCCC1=NC2(CCN(S(=O)(=O)CCc3c(C)cc(N(C)C(N)=O)cc3C)CC2)C(=O)N1", "note": "[Compound 1081, 1-{3,5-Dimethyl-4-[2-(2-non-4-ynyl-4-oxo-1,3,8-triaza-spiro[4.5]dec-1-ene-8-sulfonyl)-ethyl]-phenyl}-1-methyl-urea]", "cAMP production activity (%)": 53}]}]}
